In patent publication US5250518A, “O-methyl derivatives of azithromycin A” (priority 1990, dated 1993):
Values after ≈ are worked out from the molar mass of the structure shown.

Columns and labels:
[1] = system: Klebsiella pneumoniae NCTC-10499; assay: Antibacterial in vitro activity, tube dilution method (Table 1); type: cell-based; conditions: NCTC10499, Brain hearth bouillon, 24 hours, 37° C.
Description: (§1) O-methyl derivatives of azithromycin A of the formulae (Ii)-(Il) and their pharmaceutically acceptable addition salts have a potent antimicrobial activity. The preliminary antibacterial in vitro activity of 6-O-methyl-azithromycin A (Ii) was determined on a series of gram-positiveand gram-negative test bacteria and clinical isolates in comparison with erythromycin A. The assessment was performed by the "tube dilution" method. In the investigation there were used 24-hours cultures in "brain hearth bouillon" of standard strains and freshly isolated strains from a clinical sample.
(§2) Substrate: Brain hearth bouillon
(§3) Incubation: 24 hours, 37° C.
(§4) MIC: Minimal Inhibitory Concentration (μg/mL)
(§5) MBC: Minimal Bactericidal Concentration (μg/mL)

[2] = system: Pseudomonas aeruginosa NCTC-10490; assay: as above; type: cell-based; conditions: NCTC10490, Brain hearth bouillon, 24 hours, 37° C.
Description: as §1, §2, §3, §4, §5

[3] = system: Staphilococcus aureus ATCC 6538-P; assay: as above; type: cell-based; conditions: Brain hearth bouillon, 24 hours, 37° C.
Description: as §1, §2, §3, §4, §5

[4] = system: Streptococcus faecalis ATCC-8043; assay: as above; type: cell-based; conditions: Enterococcus faecalis, ATCC8043, Brain hearth bouillon, 24 hours, 37° C.
Description: as §1, §2, §3, §4, §5

[5] = system: Escherichia coli ATCC 10536; assay: as above; type: cell-based; conditions: ATCC10536, Brain hearth bouillon, 24 hours, 37° C.
Description: (§6) The preliminary antibacterial in vitro activity of 6-O-methyl-azithromycin A (Ii) was determined on a series of gram-positiveand gram-negative test bacteria and clinical isolates in comparison with erythromycin A. The assessment was performed by the "tube dilution" method. In the investigation there were used 24-hours cultures in "brain hearth bouillon" of standard strains and freshly isolated strains from a clinical sample.

Sarcina lutea ATCC-9341 = assay: as above; type: cell-based; conditions: Micrococcus luteus, ATCC9341, Brain hearth bouillon, 24 hours, 37° C.
Description: as §6

[6] = system: Haemophylus influenzae 4028; assay: Antibacterial in vitro activity against clinical isolates, tube dilution method (Table 2); type: cell-based; conditions: clinical isolate, Brain hearth bouillon, 24 hours, 37° C.
Description: as §1, §2, §3, §4
(§7) MBC: Minimal Bactericidal Concentation (μg/mL)

[7] = system: Staphylococcus aureus 10097; assay: as above; type: cell-based; conditions: clinical isolate, Brain hearth bouillon, 24 hours, 37° C.
Description: as §1, §2, §3, §4, §7

[8] = system: Staphylococcus aureus 10099; assay: as above; type: cell-based; conditions: clinical isolate, Brain hearth bouillon, 24 hours, 37° C.
Description: as §1, §2, §3, §4, §7

[9] = system: Staphylococcus saprophyticus 3947; assay: as above; type: cell-based; conditions: clinical isolate, Brain hearth bouillon, 24 hours, 37° C.
Description: as §1, §2, §3, §4, §7

[10] = system: Streptococcus faecalis 10390; assay: as above; type: cell-based; conditions: Enterococcus faecalis, clinical isolate, Brain hearth bouillon, 24 hours, 37° C.
Description: as §1, §2, §3, §4, §7

[11] = system: Streptococcus pneumoniae 4050; assay: as above; type: cell-based; conditions: clinical isolate, Brain hearth bouillon, 24 hours, 37° C.
Description: as §1, §2, §3, §4, §7

ATCC 6538P = assay: Antibacterial in vitro activity in comparison with azithromycin (Table 3); type: cell-based, Staphilococcus aureus; conditions: for MIC: Brain hearth Bouillon, 24-48 hours, 37° C., inoculum 10^-5 -10^-6 cfu/mL, read-out: MIC
From the text: (§8) In Table 3 there are represented in vitro tests of 6-O-methyl- (Ii), 6,11-di-O-methyl- (Ij), 11-O-methyl- (Ik) and 6,11,4"-tri-O-methyl-azithromycin A (II) in comparison with azithromycin.

ATCC 10240 = assay: as above; type: cell-based; conditions: Brain hearth Bouillon, 24-48 hours, 37° C., inoculum 10^-5 -10^-6 cfu/mL
From the text: as §8

ATCC 8043 = assay: as above; type: cell-based; conditions: Staphylococcus faecalis, ATCC8043; Brain hearth Bouillon, 24-48 hours, 37° C., inoculum 10^-5 -10^-6 cfu/mL
From the text: as §8

[12] = system: Bacillus cereus NCTC 10320; assay: as above; type: cell-based; conditions: NCTC10320, Brain hearth Bouillon, 24-48 hours, 37° C., inoculum 10^-5 -10^-6 cfu/mL
From the text: as §8

[13] = system: Bacillus pumilus NCTC 8241; assay: as above; type: cell-based; conditions: NCTC8241, Brain hearth Bouillon, 24-48 hours, 37° C., inoculum 10^-5 -10^-6 cfu/mL
From the text: as §8

[14] = system: Bacillus subtilis NCTC 8241; assay: as above; type: cell-based; conditions: for MIC: Bacillus subtilis, NCTC8241, Brain hearth Bouillon, 24-48 hours, 37° C., inoculum 10^-5 -10^-6 cfu/mL
From the text: as §8

[15] = system: Corynebacterium xerosis NCTC 9755; assay: as above; type: cell-based; conditions: NCTC9755, Brain hearth Bouillon, 24-48 hours, 37° C., inoculum 10^-5 -10^-6 cfu/mL
From the text: as §8

[16] = system: Escherichia coli ATCC 10536; assay: as above; type: cell-based; conditions: ATCC10536, Brain hearth Bouillon, 24-48 hours, 37° C., inoculum 10^-5 -10^-6 cfu/mL
From the text: as §8

[17] = system: Pseudomonas aeruginosa NCTC 10490; assay: as above; type: cell-based; conditions: NCTC10490, Brain hearth Bouillon, 24-48 hours, 37° C., inoculum 10^-5 -10^-6 cfu/mL
From the text: as §8

Sarcina lutea ATCC 9341 = assay: as above; type: cell-based; conditions: for MIC: Micrococcus luteus, ATCC9341, Brain hearth Bouillon, 24-48 hours, 37° C., inoculum 10^-5 -10^-6 cfu/mL
From the text: as §8

[18] = system: Staphylococcus epidermidis ATCC 12228; assay: as above; type: cell-based; conditions: ATCC12228, Brain hearth Bouillon, 24-48 hours, 37° C., inoculum 10^-5 -10^-6 cfu/mL
From the text: as §8

[19] = system: gram-positive and gram-negative test bacteria and clinical isolates; assay: Preliminary antibacterial in vitro activity, tube dilution method (Tables 1 and 2, summary); type: cell-based; conditions: versus erythromycin A
Description: as §1

[20] = Biological activity (1 mg contains μg of azithromycin); conditions: per 1 mg of (Ii)
[21] = system: standard bacterial strains; assay: In vitro activity on the series of standard bacterial strains (Table 3, summary); type: cell-based; conditions: versus azithromycin
Description: In Table 3 there are represented in vitro tests of 6-O-methyl- (Ii), 6,11-di-O-methyl- (Ij), 11-O-methyl- (Ik) and 6,11,4"-tri-O-methyl-azithromycin A (II) in comparison with azithromycin. […] Namely, the majority of the investigated bacterial strains was 2 to 4 times more sensitive in comparison with the parent antibiotic.
Substrate: Brain hearth Bouillon
Incubation: 24-48 hours, 37° C.
Inocculum; 10^-5 -10^-6 cfu/mL

[22] = read-out: MBC (Minimal Bactericidal Concentration)
[23] = read-out: MIC (Minimal Inhibitory Concentration)
[24] = read-out: MBC (Minimal Bactericidal Concentation)

CC[C@H]1OC(=O)[C@H](C)[C@@H](O[C@H]2C[C@@](C)(OC)[C@@H](O)[C@H](C)O2)[C@H](C)[C@@H](O[C@@H]2O[C@H](C)C[C@H](N(C)C)[C@H]2O)[C@](C)(OC)C[C@@H](C)CN(C)[C@H](C)[C@@H](O)[C@]1(C)O [Ii, 6-O-Methyl-azithromycin A]
MBC [1, 22]: 50 mg/L (≈ 65.5 µM)
MIC [1, 23]: 12.5 mg/L (≈ 16.4 µM)
MBC [2, 22]: > 50 mg/L
MIC [2, 23]: > 50 mg/L
MBC [3, 22]: 0.4 mg/L (≈ 0.524 µM)
MIC [3, 23]: 0.2 mg/L (≈ 0.262 µM)
MBC [4, 22]: 0.4 mg/L (≈ 0.524 µM)
MIC [4, 23]: 0.2 mg/L (≈ 0.262 µM)
MBC [5, 22]: 3.2 mg/L (≈ 4.19 µM)
MIC [5, 23]: 1.6 mg/L (≈ 2.1 µM)
MBC (Sarcina lutea ATCC-9341; [22]): 0.2 mg/L (≈ 0.262 µM)
MIC (Sarcina lutea ATCC-9341; [23]): 0.1 mg/L (≈ 0.131 µM)
MBC [6, 24]: 0.2 mg/L (≈ 0.262 µM)
MIC [6, 23]: 0.05 mg/L (≈ 0.0655 µM)
MBC [7, 24]: 0.4 mg/L (≈ 0.524 µM)
MIC [7, 23]: 0.05 mg/L (≈ 0.0655 µM)
MBC [8, 24]: 0.1 mg/L (≈ 0.131 µM)
MIC [8, 23]: 0.05 mg/L (≈ 0.0655 µM)
MBC [9, 24]: 0.8 mg/L (≈ 1.05 µM)
MIC [9, 23]: 0.4 mg/L (≈ 0.524 µM)
MBC [10, 24]: 3.1 mg/L (≈ 4.06 µM)
MIC [10, 23]: 0.8 mg/L (≈ 1.05 µM)
MBC [11, 24]: 0.1 mg/L (≈ 0.131 µM)
MIC [11, 23]: 0.025 mg/L (≈ 0.0328 µM)
MIC (ATCC 6538P): 0.39 mg/L (≈ 0.511 µM)
activity with respect to azithromycin (from MIC) (ATCC 6538P; printed as Micrococcus flavus ATCC 6538 P, versus azithromycin): four times as active
MIC (ATCC 10240): 0.79 mg/L (≈ 1.04 µM)
MIC (ATCC 8043): 0.05 mg/L (≈ 0.0655 µM)
MIC [12]: 0.78 mg/L (≈ 1.02 µM)
MIC [13]: 0.2 mg/L (≈ 0.262 µM)
activity with respect to azithromycin (from MIC) ([14]; Bacillus subtilis NCTC 8241, versus azithromycin): twice as active
MIC [14]: 0.2 mg/L (≈ 0.262 µM)
MIC [15]: 12.5 mg/L (≈ 16.4 µM)
MIC [16]: 3.12 mg/L (≈ 4.1 µM)
MIC [17]: 100 mg/L (≈ 131 µM)
MIC (Sarcina lutea ATCC 9341): 0.0125 mg/L (≈ 0.0164 µM)
activity with respect to azithromycin (from MIC) (Sarcina lutea ATCC 9341; Sarcina lutea ATCC 9341, versus azithromycin): twice as active
MIC [18]: 0.1 mg/L (≈ 0.131 µM)
activity on the investigated strains in comparison with erythromycin A, in words [19]: somewhat improved activity
Biological activity: 1 mg contains azithromycin [20]: 754 μg

CC[C@H]1OC(=O)[C@H](C)[C@@H](O[C@H]2C[C@@](C)(OC)[C@@H](O)[C@H](C)O2)[C@H](C)[C@@H](O[C@@H]2O[C@H](C)C[C@H](N(C)C)[C@H]2O)[C@](C)(O)C[C@@H](C)CN(C)[C@H](C)[C@@H](OC)[C@]1(C)O [Ik, 11-O-Methyl-azithromycin A]
MIC (ATCC 6538P): 0.2 mg/L (≈ 0.262 µM)
MIC (ATCC 10240): 0.1 mg/L (≈ 0.131 µM)
MIC (ATCC 8043): 0.05 mg/L (≈ 0.0655 µM)
MIC [12]: 0.1 mg/L (≈ 0.131 µM)
MIC [13]: 0.05 mg/L (≈ 0.0655 µM)
MIC [14]: 0.1 mg/L (≈ 0.131 µM)
MIC [15]: 1.56 mg/L (≈ 2.04 µM)
MIC [16]: 0.78 mg/L (≈ 1.02 µM)
MIC [17]: 25 mg/L (≈ 32.8 µM)
MIC (Sarcina lutea ATCC 9341): 0.0125 mg/L (≈ 0.0164 µM)
MIC [18]: 0.1 mg/L (≈ 0.131 µM)
activity in comparison with azithromycin, in words [21]: significantly higher activity
